# According to patent publication US9932630B2, “Method and system for decontaminating materials” (RASIRC, Inc., priority 2014, dated 2018):
# Legend:
# bacterial samples = conditions: visible mist or fog present, droplets condensed onto the sample
# E. coli = conditions: 25° C.
# From the text: (§1) FIG. 4 schematic illustrates the apparatus used in this experiment. Equipment included: a purified clean dry air (CDA) gas supply; a pressurized deionized (DI) water supply; a pressure regulator with gauge, a Filterite MPTE-010-1/4CS 0.01 micron gas filter; 3 mass flow controllers (MFCs); an MFC control box; a Stable Gaseous Delivery (SGD) System (i.e., “Concentrator” in the diagram) and a relative humidity system (RHS) (RASIRC, San Diego, Calif.). Membranes using a fluorinated ion-exchange polymer prepared as an ammonium salt were utilized.
# Operation of the decontamination apparatus can be understood with reference to FIG. 4. The CDA gas pressure was maintained at 25 psig with the pressure regulator. A 0.01 micron filter removed particulates from the gas stream. The MFCs controlled the flow of the carrier gas streams and the dilution gas stream. The RHS was used to add water gas to the gas stream. […] The water temperature was used to control the output of the humidifier. The valves (V-1, V-2, and V-3) were used to send either the dry CDA gas stream, the RHS gas stream, and/or SGD gas stream through the furnace or out to vent. TC-1 will be used to measure the temperature of the dry CDA gas stream. TC-2 will be used to measure gas temperature downstream of the RHS. TC-3 and TC-4 were used to measure the gas temperature downstream of the SGD. […]
# bovine genomic DNA = test system: bovine genomic DNA
# From the text: as §1
# Operation of the decontamination apparatus can be understood with reference to FIG. 4. The CDA gas pressure was maintained at 25 psig with the pressure regulator. A 0.01 micron filter removed particulates from the gas stream. The MFCs controlled the flow of the carrier gas streams and the dilution gas stream. […]
# A PCR plate to be used for quantifying amplifiable DNA was prepared with three replicates at each target input level (i.e., ranging from 0 ng to 1,000 ng). In each instance, measured aliquots of an aqueous solution of bovine genomic DNA were added to individual wells of the plate, and then dried. […] Amplification reactions were carried out using procedures familiar to those of ordinary skill in the art, and the appearance of fluorescent signals monitored as a function of time in a real-time format.
compound,measurement,setting,value
"OO [Hydrogen Peroxide Gas, hydrogen peroxide]",reduction of the number of viable organisms,bacterial samples,did not significantly reduce
same,Growth on tryptic soy agar plates after H202 treatment,"E. coli; E. coli 1.7×10^7 cfu per spot, gas-phase H2O2 at 505 ppm and H2O at 2122 ppm for 60 minutes",No Growth
same,number of viable bacteria after exposure,"E. coli; E. coli, gas-phase H2O2 505 ppm, 60 minutes",undetectable level
same,reduction of amplifiable DNA,bovine genomic DNA; sample containing the greatest amount of starting material,about 4 logs
same,amplifiable DNA after treatment,bovine genomic DNA; sample containing the lowest amount of starting material,completely undetectable
